In ChEMBL document CHEMBL1139502, “Oxazine 170 induces DNA:RNA:DNA triplex formation” (J Med Chem, 2005):

Tested on: Nucleic Acid
Assay: Apparent binding constant towards calf thymus DNA
Assay type: nucleic-acid assay
Conditions: Bos taurus

K app: 26000 M⁻¹
Structure (SMILES): CC/N=c1/cc2oc3cc(NCC)c(C)cc3nc-2c2ccccc12
